Experimental findings from patent publication US8168656B2, “Indoleacetic acid and indenacetic acid derivatives as therapeutic agents with reduced gastrointestinal toxicity” (Vanderbilt University, priority 2009, dated 2012) are described below.

Numbering of substitutions follows the chain as printed.

Assay in all cases: Steady-state quenching of COX intrinsic fluorescence (apo-protein)
What all share (type): binding, murine

For one experiment, the target named is T1, mCOX-2^V349L (Mus musculus, UniProt Q05769, V335L).
T1 construct: made in house; host or cells: Sf9 insect cells (baculovirus, pVL1393)
T1 sequence (Q05769 18-604 V335L): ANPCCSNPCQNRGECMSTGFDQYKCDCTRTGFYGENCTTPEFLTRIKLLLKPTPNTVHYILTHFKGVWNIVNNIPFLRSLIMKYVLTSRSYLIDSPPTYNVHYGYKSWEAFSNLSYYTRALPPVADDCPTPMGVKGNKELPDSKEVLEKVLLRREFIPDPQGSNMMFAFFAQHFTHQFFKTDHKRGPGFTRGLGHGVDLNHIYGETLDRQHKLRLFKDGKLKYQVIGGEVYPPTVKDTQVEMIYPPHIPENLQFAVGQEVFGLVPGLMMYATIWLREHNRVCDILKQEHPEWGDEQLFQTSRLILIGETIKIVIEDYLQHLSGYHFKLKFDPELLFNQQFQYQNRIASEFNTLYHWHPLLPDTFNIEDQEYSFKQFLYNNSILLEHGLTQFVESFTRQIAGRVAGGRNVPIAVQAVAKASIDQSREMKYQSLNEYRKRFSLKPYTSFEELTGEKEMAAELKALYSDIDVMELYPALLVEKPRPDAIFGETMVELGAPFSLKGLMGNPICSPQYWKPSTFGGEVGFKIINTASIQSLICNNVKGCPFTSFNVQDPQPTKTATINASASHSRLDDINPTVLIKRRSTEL
As to the method: (§1) Steady-state measurements were performed at 37° C. in a 3.5 ml fluorescence cuvette with continuous stirring. […] Data were collected over 240 or 360 seconds with 2-second integration times. The reversibility of quenching was analyzed in the same manner, with subsequent addition of 50 μM AA as competitor. The ligands were dissolved in DMSO before further dilution into buffer. The organic component in the buffer was below 0.4%.
(§2) This assay provided a method to directly monitor the binding of INDO and DM-INDO to COXs. Various concentrations of INDO and DM-INDO were added to apo-proteins and the rate of fluorescence decrease was monitored over time. After the mixture reached equilibrium, 50 μM of AA was added as competitor to monitor the reversibility of binding. The kinetic data for quenching were analyzed in the same manner as those for inhibition. For clarity, the equilibrium constant for the first step of fluorescence quenching is referred to as Kd, and k2 and k−2 from the second step of quenching are represented by k′2 and k′−2, respectively.

In another experiment the target is T2, mCOX-2^V349I (Mus musculus, UniProt Q05769, V335I).
T2 construct: made in house; host or cells: Sf9 insect cells (baculovirus, pVL1393)
T2 sequence (Q05769 18-604 V335I): T1 sequence (Q05769 18-604 V335L) with L318I
As to the method: as §1, §2

A further experiment concerns the target T3, mCOX-2^V349A (Mus musculus, UniProt Q05769, V335A).
T3 construct: made in house; host or cells: Sf9 insect cells (baculovirus, pVL1393)
T3 sequence (Q05769 18-604 V335A): T1 sequence (Q05769 18-604 V335L) with L318A
As for the experimental part:
as §1, §2

The mark [1] stands for this setting: fluorescence increase from competition with 50 μM AA.

Broadly, the Kd is the concentration at which binding is half-saturated. Low readings indicate higher affinity, high ones lower affinity. On to `COc1ccc2c(c1)c(CC(=O)O)cn2C(=O)c1ccc(Cl)cc1` [DM-INDO, 2-Des-methylindomethacin], for which the results for the “k′−2^b” value on mCOX-2^V349L (setting [1]), at mCOX-2^V349I (setting [1]) and on mCOX-2^V349A (setting [1]) were 0.006 ± 0.001 s⁻¹, 0.005 ± 0.001 s⁻¹ and 0.046 ± 0.002 s⁻¹, respectively. For the same molecule, the results for the Kd on mCOX-2^V349L (fluorescence quenching), on mCOX-2^V349I (fluorescence quenching) and at mCOX-2^V349A (fluorescence quenching) were 34 ± 19 µM, 12 ± 5 µM and 1.4 ± 0.3 µM, respectively. In addition, the “k′2” value at mCOX-2^V349L (fluorescence quenching) was 0.05 ± 0.01 s⁻¹; on mCOX-2^V349I (fluorescence quenching) it was 0.09 ± 0.01 s⁻¹; on mCOX-2^V349A (fluorescence quenching) it was 0.17 ± 0.04 s⁻¹. For the same molecule, the results for the “k′−2” value at mCOX-2^V349L (fluorescence quenching (decay)), on mCOX-2^V349I (fluorescence quenching (decay)) and at mCOX-2^V349A (fluorescence quenching (decay)) were 0.003 ± 0.002 s⁻¹, 0.003 ± 0.002 s⁻¹ and 0.045 ± 0.008 s⁻¹, respectively.
